Assay [1] relates to Chinese hamster V79 cells. The experiment in a line: Colony formation assay, radio- and chemosensitization. The assay is classed as cell-based. Here is the method:
For hypoxia irradiation, cell cultures were placed in Aneropak Kenki system (Mitsubishi Gas Chemical, Tokyo, Japan) with oxygen meter to confirm pO2 below 0.1%. Cells were kept in hypoxia for 3 h before irradiation.

For assay [2], the system named is NHEJ activity in HeLa EJ5-GFP cells. The assay is described as follows: EJ5-GFP DNA repair reporter assay. In kind it is cell-based, human. Conditions: 30 µM SQAP, p < 0.05. How it is done: (§1) HR and NHEJ activities were assessed using the DR-GFP reporter system[25] and the EJ5-GFP reporter system, respectively. pDRGFP and pCBASceI were gifts from Dr. Maria Jasin (Addgene plasmid #26475 and #26477). pimEJ5GFP was a gift from Dr. Jeremy Stark (Addgene plasmid # 44026). The assays were performed as previously described. Briefly, HeLa cells expressing DR-GFP, or EJ5-GFP were transfected with a plasmid encoding an I-SceI endonuclease using FuGENE HD transfection reagent (Promega, Madison, WI, USA). HR and NHEJ frequencies were analyzed by counting GFP positive cells with a FACS Lyric flow cytometer (BD Biosciences, San Jose, CA, USA) at 48 h post-transfection. Drug treatment was performed 3 h after transfection, and medium was replaced with the drug until FACS analysis. Relative HR and NHEJ efficiencies were calculated by normalizing to control cell values. A total of 50,000 cells were counted for each condition.

Assay [3] relates to HR activity in HeLa DR-GFP cells. The experiment in a line: DR-GFP DNA repair reporter assay. The assay is classed as cell-based, human. Conditions: 30 µM SQAP, p < 0.05. How it is done: as §1
Assay [4] has as its system CHO cells. The assay is described as follows: Chromosome aberration assay. In kind it is cell-based, Chinese hamster. Conditions: G1-irradiated CHO cells, 4 Gy, with SQAP. How it is done: Two hours after mitotic shake-off and replating, CHO cells in the G1 phase were irradiated. After 10 h, colcemid was added for 6 h to collect metaphase cells. Chromosome spreads were prepared as sister chromatid exchange assay and stained with a 5% Giemsa stain. At least 50 metaphase spreads were scored in three independent experiments.

Assay [5] concerns Chinese hamster V79 cells. The experiment in a line: Colony formation assay, radio- and chemosensitization. The assay is classed as cell-based. The following applies: V79, gamma-rays, normoxic condition.
For assay [6], the system named is poly (ADP-ribose) polymerase (PARP). Also noted: method as in PMID 37973295. The following applies: cited from earlier work.

Take `CCCCCCCCCCCCCCCCCC(=O)OCCCO[C@H]1O[C@H](CS(=O)(=O)O)[C@@H](O)[C@H](O)[C@H]1O` [SQAP, Alpha-sulfoquinovosylacyl-1,3-propanediol]: the radiosensitization entry in assay [1] (V79, SQAP pretreatment alone) is recorded as “did not enhance radiation sensitivity”; in assay [1] (V79, continuous SQAP treatment before and after irradiation, normoxic and hypoxic), “Radiosensitization was observed”. Further, in assay [2], the NHEJ activity result is on record as “significantly reduced”. For the same compound, in assay [3], the HR activity entry is “significantly reduced”. For the same compound, the chromosome-type aberrations result in assay [4] is “approximately 2.4”. Further, the “sensitization enhancement ratio (SER)” value in assay [5] was 1.3. Also, in assay [6], the PARP inhibition entry is “inhibitory effect”.

These data come from PMC12644462, “A novel radiosensitizer α-sulfoquinovosyl-acylpropanediol (SQAP) inhibits DNA repair pathways and sensitize cells to cancer chemotherapeutic agents” (Scientific Reports, 2025).
